The results in this text go back to patent US8829185B2 (Bayer HealthCare LLC, priority 2005, dated 2014).

Molecules are shown by their SMILES.

In the experiment the target is T1, FGFR1-GST (Homo sapiens, UniProt P11362).
T1 construct: GST; made in house
Kind of experiment: FGFR-1 TR-FRET biochemical assay. The protocol:
FGFR-1 TR-FRET Biochemical Assay
The FGFR-1 Assay was performed on half well 96-well opaque plates (Costar 3915) in a LANCE format. LANCE is a homogenous time resolved fluormetry based application available through Perkin Elmer. For this assay, 50 uL reactions were set up using: 0.6 uM ATP (Sigma), 25 nM poly GT-biotin (CIS BIO International), 2 nM Eu-labelled phospho-Tyr Ab (PY20 PerkinElmer), 10 nM Streptavidin-APC (Perkin Elmer), 5 nM FGFR1-GST (generated by DRT, Bayer Healthcare), 1% DMSO, 50 mM HEPES pH 7.5, 10 mM MgCl2, 0.1 mM EDTA, 0.015% Brij, 0.1 mg/ml BSA, 0.1% B-mercaptoethanol. All reactions were initiated with the addition of enzyme and were left to incubate for one hour at room temperature. Time-resolved fluorescence was then read on a Perkin Elmer VictorV Multilabel counter. The reading protocol uses an excitation wavelength at 340 nm and emission reads at both 615 and 665 nm. Signal was calculated as a ratio: (Fluorescence at 665 nm/Fluorescence at […])*10000 for each well. The background control used for this assay is the signal produced with all assay components excluding ATP. For IC50 generation, compounds were added prior to the enzyme initiation. A 50-fold stock plate was made with compounds serially diluted 1:5 in a 50% DMSO/50% dH2O solution. A 1 μL addition of the stock to the assay wells gave final compound concentrations ranging from 10 μM −0.128 nM in 1% DMSO. The data were expressed as percent inhibition: % inhibition=100−((Signal with inhibitor-background)/(Signal without inhibitor−background))*100.

T1 sequence (P11362 22-822): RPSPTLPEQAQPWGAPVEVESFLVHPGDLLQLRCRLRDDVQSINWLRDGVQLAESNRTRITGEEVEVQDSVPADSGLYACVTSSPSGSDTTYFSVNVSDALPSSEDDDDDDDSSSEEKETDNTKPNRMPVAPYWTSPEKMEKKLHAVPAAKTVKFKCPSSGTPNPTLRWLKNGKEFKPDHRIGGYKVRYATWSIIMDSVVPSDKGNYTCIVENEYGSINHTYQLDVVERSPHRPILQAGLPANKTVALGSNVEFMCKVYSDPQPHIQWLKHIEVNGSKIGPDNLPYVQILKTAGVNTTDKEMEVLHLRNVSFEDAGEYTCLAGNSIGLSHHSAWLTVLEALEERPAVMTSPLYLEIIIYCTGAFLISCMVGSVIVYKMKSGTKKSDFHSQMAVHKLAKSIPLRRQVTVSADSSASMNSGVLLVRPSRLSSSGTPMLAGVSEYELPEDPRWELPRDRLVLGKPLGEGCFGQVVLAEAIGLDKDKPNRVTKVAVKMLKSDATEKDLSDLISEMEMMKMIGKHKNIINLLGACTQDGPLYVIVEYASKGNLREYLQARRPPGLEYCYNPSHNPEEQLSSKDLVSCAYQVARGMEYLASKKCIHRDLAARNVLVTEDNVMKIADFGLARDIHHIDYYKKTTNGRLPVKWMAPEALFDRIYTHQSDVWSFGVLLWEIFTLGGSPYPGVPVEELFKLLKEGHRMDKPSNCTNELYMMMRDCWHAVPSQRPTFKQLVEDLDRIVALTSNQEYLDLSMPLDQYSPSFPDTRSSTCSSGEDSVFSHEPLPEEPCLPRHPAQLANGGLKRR

The compound `CN1CCN(Cc2c(CC#N)c(-c3ccc(NC(=O)Nc4cc(C(F)(F)F)ccc4F)cc3)c3c(N)ncnn23)CC1` [Example 74, N-(4-{4-amino-6-(cyanomethyl)-7-[(4-methylpiperazin-1-yl)methyl]pyrrolo[2,1-f][1,2,4]triazin-5-yl}phenyl)-N′-[2-fluoro-5-(trifluoromethyl)phenyl]urea] came in with a concentration for half-maximal inhibition (IC50) (bounds given in nM) of 10 to 100 nM. Consider `Nc1ncnn2c(CN3CCOCC3)c(Cl)c(-c3cc(F)c(NC(=O)Nc4cc(C(F)(F)F)ccc4F)cc3F)c12` [Example 156, N-{4-[4-amino-6-chloro-7-(morpholin-4-ylmethyl)pyrrolo[2,1-f][1,2,4]triazin-5-yl]-2,5-difluorophenyl}-N′-[2-fluoro-5-(trifluoromethyl)-phenyl]urea], for which the concentration for half-maximal inhibition (IC50) is above 100 nM (bounds given in nM) and below 1000 nM (upper bound in μM). As for `Nc1ncnn2c(CN3CCOCC3)c(Cl)c(-c3ccc(NC(=O)Nc4cc(C(F)(F)F)ccc4F)cc3)c12` [Example 154, N-{4-[4-amino-6-chloro-7-(morpholin-4-ylmethyl)pyrrolo[2,1-f][1,2,4]triazin-5-yl]phenyl}-N′-[2-fluoro-5-(trifluoromethyl)phenyl]urea], where the note is “bounds given in nM”, the half-inhibitory concentration (IC50) is below 10 nM. In the case of `Cc1ccc(F)c(NC(=O)Nc2ccc(-c3c(Cl)c(CN4CCOCC4)n4ncnc(N)c34)cc2F)c1` [Example 161, N-{4-[4-amino-6-chloro-7-(morpholin-4-ylmethyl)pyrrolo[2,1-f][1,2,4]triazin-5-yl]-2-fluorophenyl}-N′-(2-fluoro-5-methylphenyl)urea], under “bounds given in nM”, the 50% inhibitory concentration (IC50) is below 10 nM. Same read-out and setting: as for `Nc1ncnn2c(CN3CCOCC3)c(Cl)c(-c3ccc(NC(=O)Nc4cc(C(F)(F)F)ccc4F)c(F)c3)c12` [Example 152, N-{4-[4-amino-6-chloro-7-(morpholin-4-ylmethyl)pyrrolo[2,1-f][1,2,4]triazin-5-yl]-2-fluorophenyl}-N′-[2-fluoro-5-(trifluoromethyl)-phenyl]urea], the figure is 10 to 100 nM. In turn, `Nc1ncnn2c(CN3CCOCC3)c(C(=O)C3CC3)c(-c3ccc(NC(=O)Nc4cc(C(F)(F)F)ccn4)cc3)c12` [Example 89, N-{4-[4-amino-6-(cyclopropylcarbonyl)-7-(morpholin-4-ylmethyl)pyrrolo[2,1-f][1,2,4]triazin-5-yl]phenyl}-N′-[4-(trifluoromethyl)pyridin-2-yl]urea] showed an IC50 (bounds given in nM) of 10 to 100 nM. The compound `CC(=O)c1c(-c2ccc(NC(=O)Nc3cc(C(F)(F)F)ccn3)c(F)c2)c2c(N)ncnn2c1CN1CCOCC1` [Example 60, N-4-[6-acetyl-4-amino-7-(morpholin-4-ylmethyl)pyrrolo[2,1-f][1,2,4]triazin-5-yl]-2-fluorophenyl-N′-[4-(trifluoromethyl)pyridin-2-yl]urea] had a half-maximal inhibitory concentration (IC50) (bounds given in nM) below 10 nM.

`CC(=O)N1CCN(Cc2c(-c3cnco3)c(-c3ccc(NC(=O)Nc4cc(C(F)(F)F)ccc4F)cc3)c3c(N)ncnn23)CC1` [Example 32, N-4-[7-[(4-acetylpiperazin-1-yl)methyl]-4-amino-6-(1,3-oxazol-5-yl)pyrrolo[2,1-f][1,2,4]triazin-5-yl]phenyl-N′-[2-fluoro-5-(trifluoromethyl)phenyl]urea] returned an IC50 (bounds given in nM) below 10 nM. With `COCCN(C)Cc1c(-c2ccc(NC(=O)Nc3cc(C(F)(F)F)ccc3F)cc2)c2c(N)ncnn2c1CN1CCOCC1` [Example 110, N-4-[4-amino-6-[(2-methoxyethyl)(methyl)-amino]methyl-7-(morpholin-4-ylmethyl)pyrrolo[2,1-f][1,2,4]triazin-5-yl]phenyl-N′-[2-fluoro-5-(trifluoromethyl)phenyl]urea], the half-maximal inhibitory concentration (IC50) (bounds given in nM) was above 100 nM and the concentration for half-maximal inhibition (IC50) (upper bound in μM) was below 1000 nM. Regarding `COCc1c(-c2ccc(NC(=O)Nc3cccc(C(F)(F)F)n3)cc2)c2c(N)ncnn2c1CN1CCOCC1` [Example 50], the concentration for half-maximal inhibition (IC50) reads like this: (bounds given in nM) above 100 nM; (upper bound in μM) below 1000 nM. For the setting “bounds given in nM”, `CCOC(=O)c1c(-c2ccc(NC(=O)Nc3cc(C(F)(F)F)ccn3)cc2)c2c(N)ncnn2c1-c1cccc(F)c1` [Example 1, Ethyl 4-amino-7-(3-fluorophenyl)-5-{4-[({[4-(trifluoromethyl)pyridin-2-yl]amino}carbonyl)amino]phenyl}-pyrrolo[2,1-f][1,2,4]triazine-6-carboxylate] registered an IC50 of 10 to 100 nM. For the setting “bounds given in nM”, `Nc1ncnn2c(CN3CCOCC3)c(CO)c(-c3ccc(NC(=O)Nc4cc(C(F)(F)F)ccn4)c(F)c3)c12` [Example 114, N-{4-[4-amino-6-(hydroxymethyl)-7-(morpholin-4-ylmethyl)pyrrolo[2,1-f][1,2,4]triazin-5-yl]-2-fluorophenyl}-N′-[4-(trifluoromethyl)pyridin-2-yl]urea] displayed an IC50 of 10 to 100 nM. As to `CC(O)c1c(-c2ccc(NC(=O)Nc3cc(C(F)(F)F)ccc3F)cc2)c2c(N)ncnn2c1CN1CCOCC1` (stereo not shown) [Example 104, N-4-[4-amino-6-(1-hydroxyethyl)-7-(morpholin-4-ylmethyl)-pyrrolo[2,1-f][1,2,4]triazin-5-yl]phenyl-N′-[2-fluoro-5-(trifluoromethyl)-phenyl]urea], the concentration for half-maximal inhibition (IC50) (bounds given in nM) lay in the range of 10 to 100 nM. In turn, `CCc1c(-c2ccc(NC(=O)Nc3cc(C(F)(F)F)ccn3)cc2)c2c(N)ncnn2c1CN1CCOCC1` [Example 148, N-{4-[4-amino-6-ethyl-7-(morpholin-4-ylmethyl)pyrrolo[2,1-f][1,2,4]triazin-5-yl]phenyl}-N′-[4-(trifluoromethyl)pyridin-2-yl]urea] displayed a concentration for half-maximal inhibition (IC50) (bounds given in nM) of 10 to 100 nM.

On to `Nc1ncnn2c(CN3CCOCC3)c(Cl)c(-c3ccc(NC(=O)Nc4cc(C(F)(F)F)ccc4Cl)c(F)c3)c12` [Example 159, N-{4-[4-amino-6-chloro-7-(morpholin-4-ylmethyl)pyrrolo[2,1-f][1,2,4]triazin-5-yl]-2-fluorophenyl}-N′-[2-chloro-5-(trifluoromethyl)-phenyl]urea], for which, where the note is “bounds given in nM”, the IC50 fell in the range of 10 to 100 nM. `CON(C)C(=O)c1c(-c2ccc(NC(=O)Nc3cc(C(F)(F)F)ccn3)cc2)c2c(N)ncnn2c1CN1CCOCC1` [Example 97, 4-amino-N-methoxy-N-methyl-7-(morpholin-4-ylmethyl)-5-{4-[({[4-(trifluoromethyl)pyridin-2-yl]amino}carbonyl)-amino]phenyl}pyrrolo[2,1-f][1,2,4]triazine-6-carboxamide]: the half-maximal inhibitory concentration (IC50) reads like this: (bounds given in nM) above 100 nM; (upper bound in μM) below 1000 nM.

On to `COCc1c(-c2ccc(NC(=O)Nc3cc(C(F)(F)F)ccc3F)c(F)c2)c2c(N)ncnn2c1CN1CCNC(=O)C1` [Example 44, N-(4-{4-amino-6-(methoxymethyl)-7-[(3-oxopiperazin-1-yl)methyl]pyrrolo[2,1-f][1,2,4]triazin-5-yl}-2-fluorophenyl)-N′-[2-fluoro-5-(trifluoromethyl)phenyl]urea], for which the half-inhibitory concentration (IC50) (bounds given in nM) is below 10 nM. In turn, `Nc1ncnn2c(CN3CCOCC3)c(Cl)c(-c3ccc(NC(=O)Nc4cc(C(F)(F)F)ccn4)c(F)c3)c12` [Example 158, N-{4-[4-amino-6-chloro-7-(morpholin-4-ylmethyl)pyrrolo[2,1-f][1,2,4]triazin-5-yl]-2-fluorophenyl}-N′-[4-(trifluoromethyl)pyridin-2-yl]urea] yielded an IC50 (bounds given in nM) below 10 nM. Compound `Cc1cc(-c2c(C)c(CN3CCOCC3)n3ncnc(N)c23)ccc1NC(=O)Nc1cc(C(F)(F)F)ccn1` [Example 119, N-{4-[4-amino-6-methyl-7-(morpholin-4-ylmethyl)pyrrolo[2,1-f][1,2,4]triazin-5-yl]-2-methylphenyl}-N′-[4-(trifluoromethyl)pyridin-2-yl]urea] returned an IC50 (bounds given in nM) below 10 nM. The same measure, in the same setting: as for `COCc1c(-c2ccc(NC(=O)Nc3cc(C(F)(F)F)ccc3F)c(F)c2)c2c(N)ncnn2c1CN1CCOCC1` [Example 45, N-{4-[4-amino-6-(methoxymethyl)-7-(morpholin-4-ylmethyl)pyrrolo[2,1-f][1,2,4]triazin-5-yl]-2-fluorophenyl}-N′-[2-fluoro-5-(trifluoromethyl)phenyl]urea], the figure is below 10 nM; as for `COCc1c(-c2ccc(NC(=O)Nc3cc(C(F)(F)F)ccc3F)cc2)c2c(N)ncnn2c1CN1CCN(C(C)=O)CC1` [Example 21, N-{4-[7-[(4-acetylpiperazin-1-yl)methyl]-4-amino-6-(methoxymethyl)pyrrolo[2,1-f][1,2,4]triazin-5-yl]phenyl}-N′-[2-fluoro-5-(trifluoromethyl)phenyl]urea], 10 to 100 nM; as for `CCC(=O)c1c(-c2ccc(NC(=O)Nc3cc(C(F)(F)F)ccn3)cc2)c2c(N)ncnn2c1CN1CCOCC1` [Example 90, N-{4-[4-amino-7-(morpholin-4-ylmethyl)-6-propionylpyrrolo[2,1-f][1,2,4]triazin-5-yl]phenyl}-N′-[4-(trifluoromethyl)-pyridin-2-yl]urea], 10 to 100 nM.

Consider `COCc1c(-c2ccc(NC(=O)Nc3cc(C(F)(F)F)ccc3F)c(F)c2)c2c(N)ncnn2c1C1CCN(C(=O)N(C)C)CC1` [Example 150, 4-{4-amino-5-[3-fluoro-4-({[2-fluoro-5-(trifluoromethyl)-phenyl]carbamoyl}amino)phenyl]-6-(methoxymethyl)-pyrrolo[2,1f][1,2,4]-triazin-7-yl}-N,N-dimethylpiperidine-1-carboxamide], for which the half-inhibitory concentration (IC50) runs as follows: (bounds given in nM) above 100 nM; (upper bound in μM) below 1000 nM.
